Reference: paper PMC7725843, “Structural and biochemical analyses of an aminoglycoside 2′-N-acetyltransferase from Mycolicibacterium smegmatis” (Scientific Reports, 2020)

Key:
AAC(2′)-Id [1] = molecular target: T1, AAC(2′)-Id (Mycolicibacterium smegmatis, UniProt P94968); assay: X-ray crystal structure; assay type: binding; conditions: ternary complexes with gentamicin, sisomicin, neomycin or paromomycin; 5 mM CoA
T1 construct: full-length ORF (630 bp), codon-optimised synthetic gene in pET-28a(+), E. coli BL21(DE3); N-terminal His-tag cut with thrombin; homodimer

AAC(2′)-Id [2] = molecular target: T1, AAC(2′)-Id; assay: DTNB assay of CoA release at […] nm, Michaelis-Menten fit; assay type: biochemical; conditions: 300 μM acetyl-CoA, 50 mM MES pH 6.5, 200 μM DTNB, 25 °C

T1 sequence (P94968 whole entry): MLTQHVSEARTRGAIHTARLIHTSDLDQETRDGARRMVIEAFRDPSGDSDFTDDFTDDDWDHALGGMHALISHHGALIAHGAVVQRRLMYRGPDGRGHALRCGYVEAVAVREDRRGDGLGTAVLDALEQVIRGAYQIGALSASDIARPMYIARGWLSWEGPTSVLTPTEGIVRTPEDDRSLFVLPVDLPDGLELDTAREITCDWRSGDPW

Question: For CC(C)(COP(=O)(O)OP(=O)(O)OC[C@H]1O[C@@H](n2cnc3c(N)ncnc32)[C@H](O)[C@@H]1OP(=O)(O)O)[C@@H](O)C(=O)NCCC(=O)NCCS [CoA], which X-ray crystal structure (AAC(2′)-Id [1]) is on record?
Answer: chain B contains only a CoA molecule

Question: Which “Km (μM)” value (AAC(2′)-Id [2]) does the source give for CN[C@@H]1[C@@H](O)[C@@H](O[C@@H]2[C@@H](O)[C@H](O[C@H]3OC(CN)=CC[C@H]3N)[C@@H](N)C[C@H]2N)OC[C@]1(C)O [Sisomicin] here?
Answer: (7.30 ± 0.58) × 10 μM
